How the values were obtained:
[1] = system: human cervical tumor cell line HeLa (ATCC CCL-2); experiment: SAC-Formation - Nocodazole-Induced Assay; format: cell-based; conditions: Homo sapiens, HeLa, 24 h, HeLa cells, nocodazole 0.1 μg/ml together with test compound, decrease of mitotic cells (phospho-histone H3 Ser10)
In short: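 HeLa cells, plated overnight, were treated 24 h at 37 °C with nocodazole (0.1 μg/ml final) plus test compound (0.005–20 μM, 0.5% DMSO) added at the same time. After fixation, anti-phospho-histone H3 Ser10 and Hoechst staining gave the mitotic cell fraction by imaging. Values came from four-parameter Hill fits.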

[2] = system: human cervical tumor cell line HeLa (ATCC CCL-2); experiment: SAC-Formation - Paclitaxel-Induced Assay; format: cell-based; conditions: Homo sapiens, HeLa, 24 h, HeLa cells, paclitaxel 0.05 μM, test range 0.005 μM-20 μM, read-out: IC50 [mol/l] SAC-Formation - Paclitaxel-Induced Assay
In short: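 HeLa cells incubated overnight at 37° C, then given paclitaxel (0.05 μM final) plus test compound (0.005–20 μM, 0.5% DMSO) together for 24 h at 37° C. Fixed cells stained for phospho-histone H3 Ser10 (mitotic cells) and Hoechst 33342 (cell count); imaging-derived mitotic index fitted by four-parameter Hill equation.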

COCCOc1ccc(NC(=O)c2c(C)nsc2Nc2nc3c(C(F)(F)F)cccc3s2)cc1F [Example 1, N-[3-Fluoro-4-(2-methoxyethoxy)phenyl]-3-methyl-5-{[4-(trifluoromethyl)-1,3-benzothiazol-2-yl]amino}-1,2-thiazole-4-carboxamide]
IC50 [1]: 72 nM | IC50 [2]: 94 nM

Cc1nsc(Nc2nc3c(C(F)(F)F)cccc3s2)c1C(=O)Nc1ccc(OCCO)nc1 [Example 2, N-[6-(2-Hydroxyethoxy)pyridin-3-yl]-3-methyl-5-{[4-(trifluoromethyl)-1,3-benzo-thiazol-2-yl]amino}-1,2-thiazole-4-carboxamide]
IC50 [1]: 560 nM | IC50 [2]: 460 nM

COCCOc1ccc(NC(=O)c2c(C)nsc2Nc2nc3c(C(F)(F)F)cccc3s2)cn1 [Example 3, N-[6-(2-Methoxyethoxy)pyridin-3-yl]-3-methyl-5-{[4-(trifluoromethyl)-1,3-benzo-thiazol-2-yl]amino}-1,2-thiazole-4-carboxamide]
IC50 [1]: 230 nM | IC50 [2]: 130 nM

Cc1nsc(Nc2nc3c(C(F)(F)F)cccc3s2)c1C(=O)Nc1ccc(OCCO)c(F)c1 [Example 4, N-[3-Fluoro-4-(2-hydroxyethoxy)phenyl]-3-methyl-5-{[4-(trifluoromethyl)-1,3-benzothiazol-2-yl]amino}-1,2-thiazole-4-carboxamide]
IC50 [1]: 980 nM | IC50 [2]: 980 nM

Cc1nsc(Nc2cnc(C(F)(F)F)cn2)c1C(=O)Nc1ccc(OC2CCN(C(=O)OC(C)(C)C)CC2)nc1 [Example 5, tert-Butyl 4-[(5-{[(3-methyl-5-{[5-(trifluoromethyl)pyrazin-2-yl]amino}-1,2-thiazol-4-yl)carbonyl]amino}pyridin-2-yl)oxy]piperidine-1-carboxylate]
IC50 [1]: 43 nM | IC50 [2]: 110 nM

Cc1nsc(Nc2cc(C#N)ccn2)c1C(=O)Nc1ccc(OC2CCCNC2)nc1 (stereo not shown) [Example 35, 5-[(4-Cyanopyridin-2-yl)amino]-3-methyl-N-[6-(piperidin-3-yloxy)pyridin-3-yl]-1,2-thiazole-4-carboxamide]
IC50 [1]: 15000 nM | IC50 [2]: 20000 nM

Cc1nsc(Nc2ccc(C#N)cn2)c1C(=O)Nc1ccc(OC2CCCN(C(=O)OC(C)(C)C)C2)nc1 (stereo not shown) [Example 36, tert-Butyl 3-({5-[({5-[(5-cyanopyridin-2-yl)amino]-3-methyl-1,2-thiazol-4-yl}-carbonyl)amino]pyridin-2-yl}oxy)piperidine-1-carboxylate]
IC50 [1]: 210 nM | IC50 [2]: 590 nM

Cc1nsc(Nc2ccc(C#N)cn2)c1C(=O)Nc1ccc(OC2CCCNC2)nc1 (stereo not shown) [Example 37, 5-[(5-Cyanopyridin-2-yl)amino]-3-methyl-N-[6-(piperidin-3-yloxy)pyridin-3-yl]-1,2-thiazole-4-carboxamide]
IC50 [1]: 4200 nM | IC50 [2]: 5200 nM

Cc1nsc(Nc2ccc(C#N)cn2)c1C(=O)Nc1ccc(OC2CCCN(CCF)C2)nc1 (stereo not shown) [Example 38, 5-[(5-Cyanopyridin-2-yl)amino]-N-(6-{[1-(2-fluoroethyl)piperidin-3-yl]oxy}pyridin-3-yl)-3-methyl-1,2-thiazole-4-carboxamide]
IC50 [1]: 1800 nM | IC50 [2]: 13000 nM

Cc1nsc(Nc2ccc(C#N)cn2)c1C(=O)Nc1ccc(OC2CCCN(CC(F)F)C2)nc1 (stereo not shown) [Example 39, 5-[(5-Cyanopyridin-2-yl)amino]-N-(6-{[1-(2,2-difluoroethyl)piperidin-3-yl]oxy}-pyridin-3-yl)-3-methyl-1,2-thiazole-4-carboxamide]
IC50 [1]: 15 nM | IC50 [2]: 24 nM

Cc1nsc(Nc2ccc(C#N)cn2)c1C(=O)Nc1ccc(OC2CCCN(CC(F)(F)F)C2)nc1 (stereo not shown) [Example 40, 5-[(5-Cyanopyridin-2-yl)amino]-3-methyl-N-(6-{[1-(2,2,2-trifluoroethyl)piperidin-3-yl]oxy}pyridin-3-yl)-1,2-thiazole-4-carboxamide]
IC50 [1]: 150 nM | IC50 [2]: 390 nM

Cc1nsc(Nc2cnccn2)c1C(=O)Nc1ccc(OC2CCCN(C(=O)OC(C)(C)C)C2)nc1 (stereo not shown) [Example 41, tert-Butyl 3-{[5-({[3-methyl-5-(pyrazin-2-ylamino)-1,2-thiazol-4-yl]carbonyl}amino)-pyridin-2-yl]oxy}piperidine-1-carboxylate]
IC50 [1]: 240 nM | IC50 [2]: 1800 nM

Cc1nsc(Nc2cnc3ccccc3n2)c1C(=O)Nc1ccc(OCCCNC(=O)OC(C)(C)C)nc1 [Example 42, tert-Butyl (3-{[5-({[3-methyl-5-(quinoxalin-2-ylamino)-1,2-thiazol-4-yl]carbonyl}-amino)pyridin-2-yl]oxy}propyl)carbamate]
IC50 [1]: 820 nM | IC50 [2]: 1700 nM

Cc1nsc(Nc2cc(C#N)ccn2)c1C(=O)Nc1ccc(OCCCNC(=O)OC(C)(C)C)nc1 [Example 43, tert-Butyl [3-({5-[({5-[(4-cyanopyridin-2-yl)amino]-3-methyl-1,2-thiazol-4-yl}-carbonyl)amino]pyridin-2-yl}oxy)propyl]carbamate]
IC50 [1]: 130 nM | IC50 [2]: 300 nM

Cc1nsc(Nc2cc(C#N)ccn2)c1C(=O)Nc1ccc(OCCCN)nc1 [Example 44, N-[6-(3-Aminopropoxy)pyridin-3-yl]-5-[(4-cyanopyridin-2-yl)amino]-3-methyl-1,2-thiazole-4-carboxamide]
IC50 [1]: 20000 nM | IC50 [2]: 20000 nM

Cc1nsc(Nc2cc(C#N)ccn2)c1C(=O)Nc1ccc(OCCCNCC(F)F)nc1 [Example 45, 5-[(4-Cyanopyridin-2-yl)amino]-N-(6-{3-[(2,2-difluoroethyl)amino]propoxy}pyridin-3-yl)-3-methyl-1,2-thiazole-4-carboxamide]
IC50 [1]: 3500 nM | IC50 [2]: 20000 nM

Cc1nsc(Nc2ccc(C#N)cn2)c1C(=O)Nc1ccc(OCCCNC(=O)OC(C)(C)C)nc1 [Example 46, tert-Butyl [3-({5-[({5-[(5-cyanopyridin-2-yl)amino]-3-methyl-1,2-thiazol-4-yl}-carbonyl)amino]pyridin-2-yl}oxy)propyl]carbamate]
IC50 [1]: 41 nM | IC50 [2]: 250 nM

Cc1nsc(Nc2cnccn2)c1C(=O)Nc1ccc(OCCCNC(=O)OC(C)(C)C)nc1 [Example 47, tert-Butyl (3-{[5-({[3-methyl-5-(pyrazin-2-ylamino)-1,2-thiazol-4-yl]carbonyl}-amino)pyridin-2-yl]oxy}propyl)carbamate]
IC50 [1]: 3600 nM | IC50 [2]: 13000 nM

Cc1nsc(Nc2cnccn2)c1C(=O)Nc1ccc(OCCCN)nc1 [Example 48, N-[6-(3-Aminopropoxy)pyridin-3-yl]-3-methyl-5-(pyrazin-2-ylamino)-1,2-thiazole-4-carboxamide]
IC50 [1]: 5800 nM | IC50 [2]: 6600 nM

Cc1nsc(Nc2cnc3ccccc3n2)c1C(=O)Nc1cccc(C(=O)OC(C)(C)C)c1 [Example 49, tert-Butyl 3-({[3-methyl-5-(quinoxalin-2-ylamino)-1,2-thiazol-4-yl]carbonyl}amino)-benzoate]
IC50 [1]: 29 nM | IC50 [2]: 410 nM

COC(=O)c1cccc(NC(=O)c2c(C)nsc2Nc2cnc3ccccc3n2)c1 [Example 50, Methyl 3-({[3-methyl-5-(quinoxalin-2-ylamino)-1,2-thiazol-4-yl]carbonyl}amino)-benzoate]
IC50 [1]: 4500 nM | IC50 [2]: 620 nM

Cc1nsc(Nc2cnc3ccccc3n2)c1C(=O)Nc1cccc(C(=O)O)c1 [Example 51, 3-({[3-Methyl-5-(quinoxalin-2-ylamino)-1,2-thiazol-4-yl]carbonyl}amino)benzoic acid]
IC50 [1]: 20000 nM | IC50 [2]: 20000 nM

Cc1nsc(Nc2cnc3ccccc3n2)c1C(=O)Nc1cccc(C(=O)N2CCOCC2)c1 [Example 52, 3-Methyl-N-[3-(morpholin-4-ylcarbonyl)phenyl]-5-(quinoxalin-2-ylamino)-1,2-thiazole-4-carboxamide]
IC50 [1]: 28 nM | IC50 [2]: 780 nM

Cc1nsc(Nc2cnc3ccccc3n2)c1C(=O)Nc1cccc(C(=O)NC(C)(C)C)c1 [Example 53, N-[3-(tert-Butylcarbamoyl)-phenyl]-3-methyl-5-(quinoxalin-2-ylamino)-1,2-thiazole-4-carboxamide]
IC50 [1]: 950 nM | IC50 [2]: 1100 nM

Cc1nsc(Nc2cnc(C(F)(F)F)cn2)c1C(=O)Nc1ccc(OC[C@H]2CCCN(CCC(F)(F)F)C2)nc1 [Example 378, 3-methyl-5-{[5-(trifluoromethyl)pyrazin-2-yl]amino}-N-(6-{[(3S)-1-(3,3,3-trifluoropropyl)piperidin-3-yl]methoxy}pyridin-3-yl)-1,2-thiazole-4-carboxamide]
IC50 [2]: 29 nM

CCCN1CCC(COc2ccc(NC(=O)c3c(C)nsc3Nc3cnc(C(F)(F)F)cn3)cn2)C(F)(F)C1 (stereo not shown) [Example 394, N-{6-[(3,3-difluoro-1-propylpiperidin-4-yl)methoxy]pyridin-3-yl}-3-methyl-5-{[5-(trifluoromethyl)pyrazin-2-yl]amino}-1,2-thiazole-4-carboxamide]
IC50 [2]: 190 nM

Cc1nsc(Nc2cnc(C(F)(F)F)cn2)c1C(=O)Nc1ccc(OCC2CCN(CC(F)F)CC2(F)F)nc1 (stereo not shown) [Example 401, N-(6-{[1-(2,2-difluoroethyl)-3,3-difluoropiperidin-4-yl]methoxy}pyridin-3-yl)-3-methyl-5-{[5-(trifluoromethyl)pyrazin-2-yl]amino}-1,2-thiazole-4-carboxamide]
IC50 [1]: 27 nM

Cc1nsc(Nc2ccc(C#N)cn2)c1C(=O)Nc1ccc(OC[C@H]2CCN(CC(F)(F)F)C2)nc1 [Example 405, 5-[(5-Cyanopyridin-2-yl)amino]-3-methyl-N-(6-{[(35)-1-(2,2,2-trifluoroethyl)pyrrolidin-3-yl]methoxy}pyridin-3-yl)-1,2-thiazole-4-carboxamide]
IC50 [1]: 86 nM

— US20170334899A1, “AMINO-SUBSTITUTED ISOTHIAZOLES” (Bayer Pharma Aktiengesellschaft, priority 2014, published 2017)
